Test results from patent US20240322218A1, “DIAMONDOID SALTS AND RELATED COMPOSITIONS” (Wisconsin Alumni Research Foundation, priority 2021, published 2024).

Key:
[1] = Raman spectroscopy of the TFSI stretching mode; type: physicochemical; conditions: for TFSI Raman shift: neat TFSI salt of the cation, 532 nm laser
Source text: Raman spectra were taken on a LabRAM HR Evolution Horiba microscope using a 532 nm laser and grating of 1800 gr/mm. All Raman spectra were fitted and processed using Horiba's LabSpec6 software. Samples were sealed in glass slides inside of a nitrogen glove box using paraffin wax before spectra were taken.

[2] = literature (Lassegues et al. 2009); cited from earlier work
[3] = Cyclic voltammetry, cathodic stability / solvent protection; conditions: comparable electrochemical potentials, FIGS. 6 and 7
Source text: Included representative data was acquired using a platinum counter electrode, a silver/silver nitrate (Ag/AgNO3) acetonitrile non-aqueous reference electrode, and a variety of working electrodes, which spans a wide-range of standard materials and protocols for electrochemical characterization of ionic liquids and organic plastic crystals. The hardware used was a Biologic potentiostat model SP-300.
A representative procedure using acetonitrile as a solvent and Ag as the working electrode was as follows: • 1. Measure the concentration of water in acetonitrile using Karl Fischer titration. • a. Adjust concentration to ˜1000 ppm water in acetonitrile solvent. • 2. Add diamondoid salt containing electrolyte to make a defined concentration in a 4-dram scintillation vial. • 3. Polish the working electrode using alumina slurry and a polishing pad. • 4. Polish the counter electrode and the Ag wire for the reference electrode. • 5. Clean the electrode surfaces and sonicate for ˜5 seconds. Dry the counter and Ag wire electrode. • 6. Prepare the non-aqueous reference electrode by adding new reference electrolyte consisting of 0.01M AgNO3 and 0.1M tetrabutylammonium tetrafluoroborate (TBA BF4) in acetonitrile. Add the silver wire. • 7. Assemble the electrochemical cell using a custom-printed electrochemical cap by adding the counter, reference, and working electrodes. • 8. […]

[4] = Static 7Li NMR linewidth (lithium mobility) of mixtures with [Li][TFSI]; type: physicochemical; conditions: for Peak Width: static 7Li NMR, 0.1 mole fraction [Li][TFSI] mixtures with the TFSI salt of the cation
Description: All NMR measurements were carried out at 11.7 T using a broad band two channel 4 mm standard-bore cross-polarization magic-angle spinning (CP MAS) probe on a Bruker Avance III spectrometer with a proton radio frequency of 500.22 MHz, a ^13C radio frequency of 125.76 MHZ, a ^19F radio frequency 470.66 MHz, and a ^7Li radio frequency 194.40 MHz. The MAS rate was 10 KHz for the CP and ^19F experiments, and static for the ^7Li experiments. 4 mm zirconium rotors with Torlon caps and Viton O-rings were used. Approximately 100 mg of samples was packed into each rotor. All samples were prepared and sealed in a nitrogen glove box. The spinning axis was calibrated to the magic angle using KBr.
^7Li NMR spectra were acquired using […] the same instrumentation used for ^13C NMR. Protocols and pulse sequences were modified to enhance cross-polarization of ^7Li nuclei. Spectra shown represent 16 signal averages with a 0.05 second acquisition time and a 256 second recycle delay between scans. A pulse length of 2 μs was used to maintain a flip angle of less than π/6.
To evaluate the hypothesis that suppression of lithium coordination and incorporation of rigid molecular species can mobilize lithium, solid state NMR spectroscopy of ^7Li was performed to evaluate changes in lithium linewidths as a means of measuring changes in lithium mobility. Static ^7Li NMR spectra indicate the degree of chemical shift anisotropy that the lithium atoms experienced in each salt mixture. […] If the magnetic moment is dependent on the crystallographic orientation, then the lithium is more heavily interacting with the surrounding atoms.

[5] = Phase characterization / miscibility with [Li][TFSI] (DSC); type: physicochemical; conditions: for eutectic composition / miscibility gap onset (single phase solid to binary phase solid transition): mixtures with [Li][TFSI]
Description: The physical properties of the electrolytes, including solubility, thermal stability, phase transition temperatures, viscosity, and density were measured using a combination of accepted characterization techniques, including differential scanning calorimetry (DSC—measurement of phase transition temperatures), thermogravimetric analysis (TGA—measurement of thermal stability), particle-tracking micro-rheology (viscosity), and hydrometer (density). […] Phase transition temperatures, densities, and viscosities were seen to be dependent on the structures of diamondoid salts, as well as presence of additional “dopant” species, such as lithium salts, other diamondoid salts, or solvent molecules. Melting transitions ranged from below room temperature (below: 15° C.) to above 100° C., which spans the entire definition of an “ionic liquid,” range, as well as “organic plastic crystal” electrolyte range.
[Li][TFSI] and organic salt mixtures were melted together under vacuum at 100° C. The melting point of [DiamImMe][TFSI] and [AdImAd][TFSI] exceeded 100° C., so mixtures with those salts were melted and dried at 150° C. Heating was avoided above 150° C. as [Li][TFSI] is reported to undergo an oxidation reaction at temperatures approaching the melting point of pure [Li][TFSI]. After two days, samples were moved to a nitrogen glove box. Water and oxygen levels in the glovebox were monitored to be less than 0.5 ppm.
Differential scanning calorimetry (DSC) was performed using a TA instruments Q100. Samples were sealed in hermetic pans inside of a glovebox. [AdImMe][TFSI], [Me2AdImMe][TFSI], [DiamImMe][TFSI], and [AdImAd][TFSI] samples were equilibrated at −50° C., held at that temperature for three minutes, and then heated to 250° C. at a rate of 2° C. per minute. [C14MIm][TFSI] samples were cooled at a rate of 1° C. per minute to −50° C., held at that temperature for three minutes, and then heated to 250° C. at 2° C. per minute. […] Since no phase change was present, these faster scans were performed to look for the dissolving of [Li][TFSI].

[Br-].c1c[n+](C23CC4CC(CC(C4)C2)C3)cn1C12CC3CC(CC(C3)C1)C2 [Compound 4, 1,3-bis(adamantan-1-yl)imidazolium bromide]
melting point: 327.5 to 329.9 °C

O=S(=O)([N-]S(=O)(=O)C(F)(F)F)C(F)(F)F.[Li+] [[Li][TFSI], lithium bis(trifluorosulfonyl)imide, reference compound]
TFSI Raman shift [1]: ca. 747 cm^−1
TFSI Raman shift ([1]; listed as Li): 747 cm⁻¹

1-ethyl-3-methylimidazolium bis(trifluoromethylsulfonyl)imide
phase transition via Raman spectroscopy [2]: 0.2 mole fraction [Li][TFSI]
cathodic stability [3]: pronounced cathodic decomposition

Cn1cc[n+](C23CC4CC(CC(C4)C2)C3)c1.[Br-]
melting point: 230 to 234.1 °C

CCCCCCCCCCn1cc[n+](C)c1.O=S(=O)([N-]S(=O)(=O)C(F)(F)F)C(F)(F)F [[C10MIm][TFSI], 1-decyl-3-methylimidazolium TFSI, reference compound]
TFSI Raman shift [1]: 742 cm⁻¹
TFSI Raman shift ([1]; listed as [C10ImMe][TFSI]): ca. 742 cm^−1

CCCCCCCCCCCCCCn1cc[n+](C)c1.O=S(=O)([N-]S(=O)(=O)C(F)(F)F)C(F)(F)F [[C14MIm][TFSI], 1-tetradecyl-3-methylimidazolium TFSI, reference compound]
TFSI Raman shift [1]: 742 cm⁻¹
TFSI Raman shift ([1]; listed as [C14ImMe][TFSI]): ca. 742 cm^−1

O=S(=O)([N-]S(=O)(=O)C(F)(F)F)C(F)(F)F.c1c[n+](C23CC4CC(CC(C4)C2)C3)cn1C12CC3CC(CC(C3)C1)C2 [[AdImAd][TFSI]]
change of TFSI Raman spectrum in equimolar mixture with [Li][TFSI] [1]: essentially eliminated
TFSI Raman shift [1]: ca. 740 cm^−1
TFSI Raman shift ([1]; listed as AdImAd): 740 cm⁻¹
Peak Width [4]: 3159 Hz

C[n+]1ccn(C23CC4CC(CC(C4)C2)C3)c1.O=S(=O)([N-]S(=O)(=O)C(F)(F)F)C(F)(F)F [[AdImMe][TFSI]]
change of TFSI Raman spectrum in equimolar mixture with [Li][TFSI] [1]: no statistical change
TFSI Raman shift [1]: ca. 745 cm^−1
TFSI Raman shift ([1]; listed as AdImMe): 745 cm⁻¹
peak thinner than 0.1 mole fraction [Li][TFSI] in N-ethyl-N-methylpyrrolidinium bis(fluorosulfonyl)imide mixture ([4]; 0.1 mole fraction [Li][TFSI] mixture): 10%
Peak Width [4]: 454 Hz
eutectic composition [5]: ~0.5 mol fraction [Li][TFSI]
miscibility gap onset (single phase solid to binary phase solid transition) [5]: 0.2 mol fraction [Li][TFSI]

Cn1cc[n+](C23CC4C5CC6CC4C(C2)C(C6)C5C3)c1 [Compound 5, 3-(diamantan-4-yl)-1-methylimidazolium bis(trifluoromethane)sulfonimide]
TFSI Raman shift [1]: 743 cm⁻¹
Peak Width [4]: 1634 Hz
miscibility with lithium bis(trifluorosulfonyl)imide ([5]; lithium salt in the diamondoid salt): up to 50 mol %
eutectic composition [5]: ~0.5 mol fraction [Li][TFSI]
miscibility gap onset (single phase solid to binary phase solid transition) [5]: 0.2 mol fraction [Li][TFSI]

C[n+]1ccn(C23CC4CC(C)(CC(C)(C4)C2)C3)c1.O=S(=O)([N-]S(=O)(=O)C(F)(F)F)C(F)(F)F [[Me2AdImMe][TFSI]]
TFSI Raman shift [1]: 741 cm⁻¹
